Consider 1 compound from patent EP2265599B1, “CRYSTAL FORM OF PHENYLAMINOPYRIMIDINE DERIVATIVE” (Natco Pharma Limited, priority 2008, dated 2009).

The structures appear in SMILES notation.

For test [1], the system named is 5310. The test is described as follows: Matrigel invasion assay (modified Boyden chamber), 5310. In kind it is cell-based. The following applies: cells treated 48 h. The method, then:
(§1) The in vitro invasiveness of 4910, 5310 and U87 glioma cells and MDAMB231 and ZR71 breast cancer cells in the presence of specified concentrations of compounds were assessed using a modified Boyden chamber assay. Cells were treated with these compounds for 48 h. 1x10^6 cells were suspended in 600µl of serum-free medium supplemented with 0.2% BSA and placed in the upper compartment of the transwell chambers (Coming Costar Fischer Scientific Cat #07-200-158, Pittsburgh PA) coated with Matrigel (0.7 mg/ml). The lower compartment of the chamber was filled with 200 µl of serum medium and the cells were allowed to migrate for 24 h. After incubation, the cells were fixed and stained with Hema-3 and quantified as previously described (Mohanam et al. 1993). The migrated cells were imaged microscopically to determine the reduction in invasiveness induced by the compounds of this invention.
(§2) The in vitro invasiveness of 4910, 5310 and U87 glioma cells and MDAMB231 and ZR71 breast cancer cells in the presence of specified concentrations of compounds were assessed using a modified Boyden chamber assay. Cells were treated with these compounds for 48 h.

Test [2] concerns K5621uc cells. The test is described as follows: Drug temporal penetrance (Tp) after stopping drug treatment. The test is classed as in vivo, nude mice. The following applies: AN019 20mg/kg, AN024 20mg/kg, Imatinib 10mg/kg, daily ip from day 15, stopped on day 35, imaged till day 45. How it is done:
The temporal penetrance was calculated applying the following equation, Tp=. (((P)/(n))a -((P)/(n))ter)/(((P)/(n))a -((P)/(n))b) [formula]
Where: • P=photon counts at day 'a', day 'ter', or day 'b' where 'a' is the day when drug treatment was stopped and 'ter' is the day when the experiment was terminated and 'b' is the day where P is minimum after day a but before day 'ter'. • n=number of animals alive when P was measured.
The animals were imaged at 6 day intervals post transplantation. […] Drug treatment was stopped on day 35 and animals were imaged till day 45, and calculated as described in methods.

Test [3] relates to ZR-71. Put plainly: Matrigel invasion assay (modified Boyden chamber), ZR-71. The test is classed as cell-based. The conditions noted are these: cells treated 48 h. The method, then:
as §1, §2

Test [4] deals with 4910, 5310 and U87 glioma cells and MDAMB231 and ZR71 breast cancer cells. Put plainly: Western blot analysis for pAKT and pERK (cell line not specified). The test is classed as cell-based. The following applies: with and without radiation. The method, then: Western blot analysis of 4910, 5310 and U87 glioma cells and MDAMB231 and ZR71 breast cancer cells in the presence of specified concentrations of compounds were assessed as per standard protocols. Cells were treated with AN019, AN024 or Temozolomide at the specified concentrations. 24h after treatment, cells were collected and cell lysates extracted. Equal quantities of proteins were fractionated by SDS-PAGE. The fractionated proteins were blotted on to nylon membranes and immunoprobed for AKT, ERK and Pi3k. Breast cancer cell protein isolates were additionally immunoprobed for EGFR, ErbB1, ErbB2 and ErbB3.

The test system of test [5] is 5310 cells. The test is described as follows: In vitro angiogenic assay (conditioned media on human dermal endothelial cells), 5310. The test is classed as cell-based. The conditions noted are these: control conditions and after radiation. The method, then: The in vitro angiogenesis of 4910, 5310 and U87 glioma cells and MDAMB231 and ZR71 breast cancer cells in the presence of specified concentrations of compounds were determined as follows, cells (2x10^4/well) were seeded in 8-well chamber slides and were treated with various concentrations of test compounds. After a 24 h incubation period, the conditioned media was removed and added to a 4x 10^4 human dermal endothelial cell (monolayer in 8-well chamber slides) and the human dermal endothelial cells were allowed to grow for 72 h. Cells were then fixed in 3.7% formaldehyde and stained with H&E and photographed.

The test system of test [6] is Baf3E255K. Put plainly: In vivo anti-leukemic activity, blast cell count in blood smears, Baf3E255K implanted nude mice. The following applies: Imatinib 10mg/kg, AN019 20mg/kg, AN024 20mg/kg, oral gavage or ip from day 15; up to day 42. The text has this: Blood smears were obtained via the tail vein or via the femoral vein every 6th day and blast cells counted and graphically represented.
Abdominal swelling and decrease in activity was monitored daily, blood smear taken via the tail vein or the femoral vein every 6th day and H&E stained as per standard protocols. 42 days after implantation, mice were sacrificed and spleens harvested.
Nude mice were intraperitoneally implanted with Baf3 mutant cells (wt, T315I, M351T or E255K). […] Blood was drawn from the femoral vein or tail vein every 6th day and blast cell count determined and graphically represented.

The test system of test [7] is K562 luc human leukemia cells. Put plainly: Low dose oral treatment of nude mice implanted with K562 luc cells (luciferase expression). The conditions noted are these: oral administration. The test is classed as in vivo. How it is done: Nude mice (nu/nu) were implanted with K562 cells (1x106) normal/luc via tail vein. Five mice were used per group and divided into 24 groups + 2 control. All groups were implanted with K562 normal/luc cells. Of the 24 groups, 12 were used for luciferase studies whereas the other 12 were used for blood smear count studies.
Drugs were administered by oral gavage (2% gum acacia and 2% SLS in an aqueous suspension).

The subject of test [8] is K562 luc human leukemia cells. Put plainly: Drug effectiveness (De) from in vivo luciferase studies. On the set-up: species or system nude mice. The text has this: [formula] Where: • Σalive = total number of mice alive per concentration at the end of experiment times photon count, Eluc = total number of mice alive showing luciferase expression per concentration at end of experiment and c represents control untreated animals times photon count and ∑c-initial represents the initial number of animals in control at start of experiment times photon count.

In the case of `Cc1ccc(NC(=O)c2cc(C(F)(F)F)cc(C(F)(F)F)c2)cc1Nc1nccc(-c2cccnc2)n1` [AN019, (3,5-bis trifluoromethyl)-N-[4-methyl-3-(4-pyridin-3yl-pyrimidin-2ylamino)-phenyl]-benzamide], the “+Radiation % Invasion” value amounted to 6% in test [1] (5310, with radiation) and 19% in test [3] (ZR-71, with radiation). Moreover, the “-Radiation % Invasion” value in test [1] (5310, without radiation) is on record as 5%; in test [3] (ZR-71, without radiation), 33%. For the same compound, the “Tp (temporal penetrance)” value in test [2] came out at 2.0. Also, in test [4], the “levels of pERK” value is reported as “reduced significantly”. The inhibition of angiogenesis entry in test [5] is recorded as “inhibition of angiogenesis was greater in control conditions than after radiation treatment”. In addition, in test [6], the “blast cell count in blood smears” value is on record as “significant decrease in blast cell count”. For the same compound, the luciferase expression result in test [7] (1mg/kg) is given as “did not induce a decrease in luciferase expression”; in test [7] (5mg/kg), “caused fixation of leukemia cells at constant expression levels”; in test [7] (10mg/kg) it was “caused a decrease in luciferase expression”; in test [7] (20mg/kg), “caused a decrease in luciferase expression”. The “De (drug effectiveness)” value amounted to 25.82% in test [8] (5mg/kg), 78.20% in test [8] (10mg/kg), 83.40% in test [8] (20mg/kg) and 85.20% in test [8] (40mg/kg).
